Where “and” joins values, the source holds several entries; their conditions need not be identical. Equal entries are not always repeated.
Tests used:
hippocampus neurons = settings: primate ischemic animal model; cited from earlier work
total Aβ (Ab40 and Ab42) = experiment: Brain total Aβ by ELISA after icv infusion into guinea pig brains; format: in vivo; settings: constant icv infusion, 1 mg/ml
Excerpt: (§1) In vivo icv administration of protease inhibitors into guinea pig brains. Guinea pigs (Harley strain, 300-500 grams) were obtained from Charles River (Wilmington, Mass.). The animals were given free access to food and water before and during the experiment. An ALZET osmotic mini-pump (ALZET company, Cupertino, Calif.) was implanted subcutaneously in the mid-scapular area of the back of each animal. A catheter was connected to the osmotic mini-pump and inserted into the lateral ventricle of the brain (using a brain infusion kit manufactured by ALZET).
(§2) E64d or CA074Me (from CalBiochem, San Diego, Calif.) were each administered to guinea pig brains by icv minipump infusion at a rate of […] with each compound at 1 mg/ml in saline (with 1.5% DMSO). Each e64d and control group consisted of five animals; each CA074Me and control group consisted of ten animals. Continuous infusion was conducted for 7 days and 30 days. At the end of each infusion period, animals were sacrificed and half the brain was prepared as extracts for ELISA measurement of Aβ peptide levels conducted in triplicate with Ab ELISAs (from Biosource International). The other half brain was used for isolation of synaptosome preparations and Ab analyses.
(§3) Brain Extracts. Brain extracts were prepared by subjecting fresh tissues to homogenization at 1:10 w/v in guanidine buffer consisting of 5 M guanidine-HCl in 50 mM Tris-HCl, pH 8.3 (buffer reagents from Sigma-Aldrich, St. Louis, Mo.). Homogenates were agitated at room temperature for 3-4 hours, then stored at −20° C. The day before the ELISA assay, the tissue samples were diluted further by 1:10 for a final guanidine concentration of 0.5 M. These diluted homogenates were then centrifuged at 14,000 rpm for 20 minutes at 4° C. and supernatants were collected for measurement of total Ab, and Aβ40 and Aβ42 separately, by ELISA assay. Isolation of synaptosomes from brain. Synaptosomes were prepared by homogenization of fresh brain tissue in isotonic sucrose (320 mM), pH 7.4, 1 mM EDTA, 0.25 mM dithiothreitol, and 30 U/ml RNAse inhibitor. […] For quantitation of Aβ peptides, ELISA assays were used to measure Aβ levels. […] CTFβ fragments derived from APP were analyzed by western blots with antibody MAB 1560 (Chemicon, Temecula, Calif.). The sAPPα fragment derived from APP was analyzed by western blots with antibody MAB 343 (Chemicon, Temecula, Calif.). […]
(§4) Data Analyses. Data were analyzed by one-way analysis of variance for analyses of statistical significance of the effects of compounds on Ab levels, with p<0.05 indicating statistical significance, using GraphPad Prism software program. Following ANOVA analyses among treatment groups, individual group values for Ab levels were analyzed using Dunnett's multiple comparison test. […]

Aβ42 = experiment: Brain Aβ42 by specific ELISA after icv infusion; format: in vivo; settings: guinea pig, 7 days
Excerpt: as §1, with “ALZET). […]” for “ALZET).”
(§5) Brain Extracts. […] For quantitation of Aβ peptides, ELISA assays were used to measure Aβ levels. […] CTFβ fragments derived from APP were analyzed by western blots with antibody MAB 1560 (Chemicon, Temecula, Calif.). The sAPPα fragment derived from APP was analyzed by western blots with antibody MAB 343 (Chemicon, Temecula, Calif.). […]
as §4

Aβ40 = experiment: Brain Aβ40 by specific ELISA after icv infusion; format: in vivo; settings: guinea pig, 7 days
Excerpt: as §1, with “ALZET). […]” for “ALZET).”
as §5, §4

sAPPα = experiment: Brain sAPPα by western blot densitometry after icv infusion; format: in vivo; settings: guinea pig, 7 days, densitometric scanning of western blots
Excerpt: as §1, with “ALZET). […]” for “ALZET).”
as §5, §4

CTFβ = experiment: Brain CTFβ by western blot densitometry after icv infusion; format: in vivo; settings: guinea pig, 7 days, densitometric scanning of western blots
Excerpt: as §1, with “ALZET). […]” for “ALZET).”
as §5, §4

synaptosome Aβ = experiment: Synaptosome total Aβ by ELISA after icv infusion; format: in vivo; settings: guinea pig
Excerpt: as §1, §2, §3, §4

[1] = Japan; cited from earlier work
[2] = Phase III study; cited from earlier work
[3] = rats, high dose; cited from earlier work

Structure (SMILES)	protection of brain neurons during ischemia (hippocampus neurons)	reduction of brain total Aβ relative to control (total Aβ (Ab40 and Ab42); 7 days) [%]	reduction of brain total Aβ relative to control (total Aβ (Ab40 and Ab42); 30 days) [%]	reduction of Aβ42 in brain (Aβ42) [%]	reduction of Aβ40 in brain extracts (Aβ40) [%]	increase in brain sAPPα above control (sAPPα) [%]	reduction in brain CTFβ relative to controls (CTFβ)	reduction of synaptosome Aβ relative to controls (synaptosome Aβ; 7 days) [%]	reduction of synaptosome Aβ relative to controls (synaptosome Aβ; 30 days) [%]	Phase I clinical trial outcome [1]	efficacy for muscular dystrophy [2]	liver toxicity [3]
CCCNC(=O)C1OC1C(=O)NC(C(=O)N1CCCC1C(=O)O)C(C)CC (centres unmarked) [CA074, 1-{3-methyl-2-[(3-propylcarbamoyl-oxiranecarbonyl)-amino]-pentanoyl}-pyrrolidine-2-carboxylic acid]	protect hippocampus neurons from damage											
CCCNC(=O)[C@H]1O[C@@H]1C(=O)N[C@H](C(=O)N1CCC[C@H]1C(=O)OC)[C@@H](C)CC [CA074Me, L-Proline, N[[(2S,3S)3[(propylamino)carbonyl]oxiranyl]carbonyl]-L-isoleucyl-, methyl ester]		57	62	56	47	60	45% and 44%	62	74			
CCOC(=O)[C@H]1O[C@@H]1C(=O)N[C@@H](CC(C)C)C(=O)NCCC(C)C [E64d, oxiranecarboxylic acid, 3-[[[(1S)-3-methyl-1-[[(3-methylbutyl)amino]carbonyl]butyl]amino]carbonyl], ethyl ester]		31	55					27	50	successfully passed Phase I clinical trials	low efficacy for muscular dystrophy	liver toxicity was found
CC(C)CCNC(=O)C(CC(C)C)NC(=O)C1OC1C(=O)O (centres unmarked) [e64c, 3-[3-methyl-1-(3-methyl-butylcarbamoyl)-butylcarbamoyl]-oxirane-2-carboxylic acid]	protect hippocampus neurons from damage											

— US20080227806A1, “Novel Drugs for Dementia” (AMERICAN LIFE SCIENCE PHARMACEUTICALS, priority 2005, published 2008)
